# Test results published in PubChem BioAssay (NCI).
#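 Assay format: 96-well plates, 48-hour exposure. GI50: concentration for 50% inhibition of growth. The concentration for full growth arrest is given as TGI.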
# Key:
# Experiment in all cases: DTP human tumour cell line panel, 48 h
# BT-549 breast = tested on: BT-549 breast
# HL-60(TB) leukemia = tested on: HL-60(TB) leukemia
# COLO 205 colon = tested on: COLO 205 colon
# LOX IMVI melanoma = tested on: LOX IMVI melanoma
# MALME-3M melanoma = tested on: MALME-3M melanoma
# HCT-116 colon = tested on: HCT-116 colon
# HS 578T breast = tested on: HS 578T breast
# RXF 393 renal = tested on: RXF 393 renal
# NCI/ADR-RES ovarian = tested on: NCI/ADR-RES ovarian
# PC-3 prostate = tested on: PC-3 prostate
# OVCAR-5 ovarian = tested on: OVCAR-5 ovarian
# NCI-H522 lung = tested on: NCI-H522 lung
# 786-0 renal = tested on: 786-0 renal
# SK-MEL-2 melanoma = tested on: SK-MEL-2 melanoma
# IGROV1 ovarian = tested on: IGROV1 ovarian
# HOP-62 NSCLC = tested on: HOP-62 NSCLC
# NCI-H460 lung = tested on: NCI-H460 lung
# SNB-19 CNS = tested on: SNB-19 CNS
# A549 NSCLC = tested on: A549 NSCLC
# SW-620 colon = tested on: SW-620 colon
# SK-OV-3 ovarian = tested on: SK-OV-3 ovarian
# UACC-257 melanoma = tested on: UACC-257 melanoma
# RPMI-8226 leukemia = tested on: RPMI-8226 leukemia
# UO-31 renal = tested on: UO-31 renal
# TK-10 renal = tested on: TK-10 renal
# M14 melanoma = tested on: M14 melanoma
# DU-145 prostate = tested on: DU-145 prostate
# OVCAR-8 ovarian = tested on: OVCAR-8 ovarian
# A498 renal = tested on: A498 renal
# U251 CNS = tested on: U251 CNS
# SN12C renal = tested on: SN12C renal
# KM12 colon = tested on: KM12 colon
# MDA-MB-231 breast = tested on: MDA-MB-231 breast
# SF-268 CNS = tested on: SF-268 CNS
# SK-MEL-5 melanoma = tested on: SK-MEL-5 melanoma
# CCRF-CEM leukemia = tested on: CCRF-CEM leukemia
# NCI-H23 lung = tested on: NCI-H23 lung
# K-562 leukemia = tested on: K-562 leukemia
# T-47D breast = tested on: T-47D breast
# HOP-92 NSCLC = tested on: HOP-92 NSCLC
# OVCAR-4 ovarian = tested on: OVCAR-4 ovarian
# ACHN renal = tested on: ACHN renal
# MCF7 breast = tested on: MCF7 breast
# SF-295 CNS = tested on: SF-295 CNS
# SNB-75 CNS = tested on: SNB-75 CNS
# HCC-2998 colon = tested on: HCC-2998 colon
# EKVX NSCLC = tested on: EKVX NSCLC
# UACC-62 melanoma = tested on: UACC-62 melanoma
# SR leukemia = tested on: SR leukemia
# OVCAR-3 ovarian = tested on: OVCAR-3 ovarian
# MOLT-4 leukemia = tested on: MOLT-4 leukemia
# SF-539 CNS = tested on: SF-539 CNS
# MDA-MB-435 = tested on: MDA-MB-435
# CAKI-1 renal = tested on: CAKI-1 renal
# HCT-15 colon = tested on: HCT-15 colon
# NCI-H226 lung = tested on: NCI-H226 lung
# SK-MEL-28 melanoma = tested on: SK-MEL-28 melanoma
# HT29 colon = tested on: HT29 colon
structure (smiles),measurement,setting,value
CCCCCCCCCCCC1=NC(C)(C)CN1C(C)C,GI50,BT-549 breast,9.22 µM
same,TGI,BT-549 breast,23.4 µM
same,GI50,HL-60(TB) leukemia,2.14 µM
same,TGI,HL-60(TB) leukemia,4.55 µM
same,GI50,COLO 205 colon,1.77 µM
same,TGI,COLO 205 colon,3.15 µM
same,GI50,LOX IMVI melanoma,2.32 µM
same,TGI,LOX IMVI melanoma,6.85 µM
same,GI50,MALME-3M melanoma,1.92 µM
same,TGI,MALME-3M melanoma,4.32 µM
same,GI50,HCT-116 colon,2.83 µM
same,TGI,HCT-116 colon,10.4 µM
same,GI50,HS 578T breast,2.81 µM
same,TGI,HS 578T breast,13.1 µM
same,GI50,RXF 393 renal,2.17 µM
same,TGI,RXF 393 renal,5.33 µM
same,GI50,NCI/ADR-RES ovarian,3.63 µM
same,TGI,NCI/ADR-RES ovarian,13.4 µM
same,GI50,PC-3 prostate,2.12 µM
same,TGI,PC-3 prostate,11.1 µM
same,GI50,OVCAR-5 ovarian,4.14 µM
same,TGI,OVCAR-5 ovarian,16.1 µM
same,GI50,NCI-H522 lung,2.65 µM
same,TGI,NCI-H522 lung,10.8 µM
same,GI50,786-0 renal,3.57 µM
same,TGI,786-0 renal,13 µM
same,GI50,SK-MEL-2 melanoma,3.2 µM
same,TGI,SK-MEL-2 melanoma,10 µM
same,GI50,IGROV1 ovarian,1.64 µM
same,TGI,IGROV1 ovarian,4.53 µM
same,GI50,HOP-62 NSCLC,4.35 µM
same,TGI,HOP-62 NSCLC,16.2 µM
same,GI50,NCI-H460 lung,3.22 µM
same,TGI,NCI-H460 lung,9.28 µM
same,GI50,SNB-19 CNS,11.3 µM
same,TGI,SNB-19 CNS,23.4 µM
same,GI50,A549 NSCLC,3.71 µM
same,TGI,A549 NSCLC,14.6 µM
same,GI50,SW-620 colon,1.85 µM
same,TGI,SW-620 colon,3.87 µM
same,GI50,SK-OV-3 ovarian,7.51 µM
same,TGI,SK-OV-3 ovarian,20 µM
same,GI50,UACC-257 melanoma,2.49 µM
same,TGI,UACC-257 melanoma,6.02 µM
same,GI50,RPMI-8226 leukemia,1.44 µM
same,TGI,RPMI-8226 leukemia,3.66 µM
same,GI50,UO-31 renal,2.75 µM
same,TGI,UO-31 renal,12.5 µM
same,GI50,TK-10 renal,4.02 µM
same,TGI,TK-10 renal,16.1 µM
same,GI50,M14 melanoma,1.89 µM
same,TGI,M14 melanoma,3.57 µM
same,GI50,DU-145 prostate,5.46 µM
same,TGI,DU-145 prostate,17.9 µM
same,GI50,OVCAR-8 ovarian,4.35 µM
same,TGI,OVCAR-8 ovarian,16.3 µM
same,GI50,A498 renal,4.78 µM
same,TGI,A498 renal,19.3 µM
same,GI50,U251 CNS,3.4 µM
same,TGI,U251 CNS,12.8 µM
same,GI50,SN12C renal,4.04 µM
same,TGI,SN12C renal,16.7 µM
same,GI50,KM12 colon,1.94 µM
same,TGI,KM12 colon,3.96 µM
same,GI50,MDA-MB-231 breast,3.67 µM
same,TGI,MDA-MB-231 breast,14 µM
same,GI50,SF-268 CNS,5.51 µM
same,TGI,SF-268 CNS,18.2 µM
same,GI50,SK-MEL-5 melanoma,2.05 µM
same,TGI,SK-MEL-5 melanoma,4.34 µM
same,GI50,CCRF-CEM leukemia,2.7 µM
same,TGI,CCRF-CEM leukemia,10.1 µM
same,GI50,NCI-H23 lung,2.98 µM
same,TGI,NCI-H23 lung,11.3 µM
same,GI50,K-562 leukemia,1.94 µM
same,TGI,K-562 leukemia,5.82 µM
same,GI50,T-47D breast,2.9 µM
same,TGI,T-47D breast,8.73 µM
same,GI50,HOP-92 NSCLC,1.19 µM
same,TGI,HOP-92 NSCLC,5.17 µM
same,GI50,OVCAR-4 ovarian,4.29 µM
same,TGI,OVCAR-4 ovarian,15.9 µM
same,GI50,ACHN renal,4.15 µM
same,TGI,ACHN renal,15.7 µM
same,GI50,MCF7 breast,2.81 µM
same,TGI,MCF7 breast,8.68 µM
same,GI50,SF-295 CNS,3.05 µM
same,TGI,SF-295 CNS,10.7 µM
same,GI50,SNB-75 CNS,6.04 µM
same,TGI,SNB-75 CNS,19.2 µM
same,GI50,HCC-2998 colon,1.71 µM
same,TGI,HCC-2998 colon,3.27 µM
same,GI50,EKVX NSCLC,6.55 µM
same,TGI,EKVX NSCLC,21.1 µM
same,GI50,UACC-62 melanoma,1.75 µM
same,TGI,UACC-62 melanoma,3.54 µM
same,GI50,SR leukemia,1.71 µM
same,TGI,SR leukemia,4.32 µM
same,GI50,OVCAR-3 ovarian,1.94 µM
same,TGI,OVCAR-3 ovarian,6.14 µM
same,GI50,MOLT-4 leukemia,2.67 µM
same,TGI,MOLT-4 leukemia,7.44 µM
same,GI50,SF-539 CNS,2.14 µM
same,TGI,SF-539 CNS,4.41 µM
same,GI50,MDA-MB-435,2 µM
same,TGI,MDA-MB-435,5.33 µM
same,GI50,CAKI-1 renal,2.68 µM
same,TGI,CAKI-1 renal,14 µM
same,GI50,HCT-15 colon,2.63 µM
same,TGI,HCT-15 colon,8.76 µM
same,GI50,NCI-H226 lung,6.16 µM
same,TGI,NCI-H226 lung,22 µM
same,GI50,SK-MEL-28 melanoma,1.78 µM
same,TGI,SK-MEL-28 melanoma,3.37 µM
COc1ccc(OC)c([N+](=O)[O-])c1-c1nc2sc(Cl)cn2c1/C=N/N=C(N)N,TGI,BT-549 breast,38.7 µM
same,TGI,HL-60(TB) leukemia,29 µM
same,TGI,COLO 205 colon,> 100 µM
same,TGI,LOX IMVI melanoma,> 100 µM
same,TGI,MALME-3M melanoma,42.4 µM
same,TGI,HCT-116 colon,> 100 µM
same,TGI,HS 578T breast,51.7 µM
same,TGI,RXF 393 renal,48.3 µM
same,TGI,NCI/ADR-RES ovarian,> 100 µM
same,TGI,PC-3 prostate,41.8 µM
same,TGI,OVCAR-5 ovarian,71.7 µM
same,TGI,NCI-H522 lung,37.9 µM
same,TGI,786-0 renal,> 100 µM
same,TGI,SK-MEL-2 melanoma,38.8 µM
same,TGI,IGROV1 ovarian,28.8 µM
same,TGI,HOP-62 NSCLC,> 100 µM
same,TGI,NCI-H460 lung,56.8 µM
same,TGI,SNB-19 CNS,43.4 µM
same,TGI,A549 NSCLC,58.3 µM
same,TGI,SW-620 colon,55 µM
same,TGI,UACC-257 melanoma,37.5 µM
same,TGI,RPMI-8226 leukemia,> 100 µM
same,TGI,UO-31 renal,33.1 µM
same,TGI,TK-10 renal,48.7 µM
same,TGI,M14 melanoma,> 100 µM
same,TGI,DU-145 prostate,42.8 µM
same,TGI,OVCAR-8 ovarian,43.1 µM
same,TGI,A498 renal,33.7 µM
same,TGI,U251 CNS,> 100 µM
same,TGI,SN12C renal,37.5 µM
same,TGI,KM12 colon,46.3 µM
same,TGI,MDA-MB-231 breast,35.7 µM
same,TGI,SF-268 CNS,64.8 µM
same,TGI,SK-MEL-5 melanoma,32.3 µM
same,TGI,CCRF-CEM leukemia,> 100 µM
same,TGI,HT29 colon,34 µM
same,TGI,NCI-H23 lung,60.7 µM
same,TGI,K-562 leukemia,56.3 µM
same,TGI,T-47D breast,42.7 µM
same,TGI,HOP-92 NSCLC,31.2 µM
same,TGI,OVCAR-4 ovarian,30.1 µM
same,TGI,ACHN renal,86.3 µM
same,TGI,MCF7 breast,46.3 µM
same,TGI,SF-295 CNS,50.2 µM
same,TGI,SNB-75 CNS,24.9 µM
same,TGI,HCC-2998 colon,35.6 µM
same,TGI,EKVX NSCLC,57 µM
same,TGI,UACC-62 melanoma,29.5 µM
same,TGI,SR leukemia,34.7 µM
same,TGI,OVCAR-3 ovarian,40.4 µM
same,TGI,MOLT-4 leukemia,23.2 µM
same,TGI,SF-539 CNS,53.5 µM
same,TGI,MDA-MB-435,46.3 µM
same,TGI,CAKI-1 renal,38.5 µM
same,TGI,HCT-15 colon,> 100 µM
same,TGI,NCI-H226 lung,44.1 µM
same,TGI,SK-MEL-28 melanoma,33.4 µM
